Laboratory results taken from patent US6423541B1, “Process for in vitro selection of high methol producing genotypes” (Council of Scientific&Industrial Reaearch, priority 2000, dated 2002).

How the values were obtained:
Assay type in all cases: cell-based
[1] = tested on: calliclones (regenerated shoots) of Mentha arvensis cv. Himalaya; experiment: Large scale stepwise screening of calliclones on menthol screening medium
Protocol: Large scale screening of clones was carried out in various batches by raising the calliclones as above. A total of 2850 shoots were transferred to the screening medium containing 50 μg ml^−1 menthol and incubated for 1 week. The surviving shoots from this medium were stepwise transferred to media containing higher concentrations of menthol ([…]). Finally the tolerant clones surviving at 70 μg ml^−1 menthol concentration were transferred individually to MS basal medium containing vitamins for rooting. The looted plantlets were subsequently hardened and transferred to pots in the glass house to raise sufficient planting material (sucker) for field experiments.
After 7 days of culture 1263 twigs survived at 50 μg ml^−1 concentration of menthol. These surviving shoots were subsequently transferred to the medium containing 60 μg ml^−1 menthol At this concentration 942 twig turned brown and died within 7 days. Finally, the 321 twigs which survived were inoculated into the screening medium containing 70 μg ml^−1 menthol. In His tertiary level screening, only 30 shoots survived (Table 5). These clones were inoculated into the rooting medium and after rooting transferred to pots in the glasshouse. The acclimatized selected plantlets from the glasshouse were transferred to the field for sucker production in the month of September 1997. In the month of January 1998, the suckers developed from each plant were field planted with 5 replicates using randomized block design. The plants grown with standard agronomic practices were harvested twice, first after 110 days of planting and subsequently 70 days after the first harvest. Ultimately, these 30 menthol tolerant clones were multiplied and grown in the field in replicated plots of 5 m×5 m sizes. The twigs of 30 clones from the replicated trials were rechecked for tolerant phenotypes at a concentration of 70 μg ml^−1 menthol wherein, these survived even after 7 days. These were also tested for survival at one step higher concentration of menthol (80 μg ml^−1). At this concentration of menthol only 5 clones (GRB 3, 14, 24, 27, 30) survived.
2. Large scale screening of the heterogeneous population of molecular variants were carried out by inoculating the regenerated independent clones into the screening medium i.e., MS basal agar containing 50 μg ml^−1 menthol followed by incubation for 1 week.
3. The surviving shoots from this medium were step-wise transferred to media containing higher concentrations of menthol (60 and 70 μg ml^−1). Finally the tolerant clones surviving at 70 μg ml^−1 menthol concentration (which cause 99% killing) are transferred individually to MS basal medium containing vitamins for rooting.

[2] = tested on: regenerated shoots of Mentha arvensis variety MAS-1; experiment: Survival of in vitro raised shoots on menthol containing MS basal medium
Excerpt: (§1) The plant varieties analysed were Himalaya, Shivalik, Gomti, MAS-1, Kosi, Kalka of Mentha arvensis L. (2n=96). The suckers of these plant varieties were obtained from CIMAP's national gene bank for medicinal and aromatic plants for planting. The explant materials were collected from the field grown plants and surface sterilized by washing sequentially with 2% detergent, distilled water containing a few drops of Savlon (Johnson and Johnson, India), 0.1% acidified mercuric chloride and autoclaved distilled water before inoculation. About 1 cm long internodal pieces were inoculated in the MS medium (Murasighe and Skoog, 1962) containing vitamins, 100 mg l^−1 myo-inositol 3% wv^−1 sucrose, 1.5% wv^−1 agar (Difco), 0.5 .μg ml^−1 of an auxin, (NAA, 1-napthalene acetic acid) and 5 μg ml^−1 of a cytokinin (BAP, benzyl aminopurine) (Shasany et al, 1998). The cultures were grown at 25±2° C. and 400 to 600 lux light intensity with 16 h photoperiod. The regenerated shoots were separated 12 weeks after the explant inoculation for rooting and/or testing menthol tolerance.
(§2) The regenerated shoots (3-4 cm long, containing the apical bud and 2-3 nodes) separated after 12 weeks, were inoculated into MS basal medium with or without menthol (0 to 100 μg ml^−1). Concentration of menthol in each treatment was stepped up by 10 μg in a sequential manner. On each kind of these media, 5 independently regenerated shoots were inoculated per flask; 4 flasks were inoculated per replication and each treatment was replicated 5 times, making the number of flasks to 20 and number of explants to 100 for each concentration of menthol. The experiment was conducted in the completely randomized design (CRD) fashion. Cultures were incubated and maintained at 25±2° C. and 400-600 lux light intensity with 16-hour photoperiod. The wilting response and lethality in explants was recorded every 24 hours over a period of one week.

[3] = tested on: regenerated shoots of Mentha arvensis variety Gomti; experiment: as above
Excerpt: as §1, §2

[4] = tested on: regenerated shoots of Mentha arvensis variety Kosi; experiment: as above
Excerpt: as §1, §2

[5] = 100-ppm menthol, twenty-four hours after incubation
[6] = menthol 10 μg ml^−1, 20 shoots tested per replication
[7] = menthol 20 μg ml^−1, 20 shoots tested per replication
[8] = menthol 30 μg ml^−1, 20 shoots tested per replication
[9] = menthol 40 μg ml^−1, 20 shoots tested per replication
[10] = menthol 50 μg ml^−1, 20 shoots tested per replication
[11] = menthol 60 μg ml^−1, 20 shoots tested per replication
[12] = menthol 70 μg ml^−1, 20 shoots tested per replication
[13] = menthol 80 μg ml^−1, 20 shoots tested per replication
[14] = menthol 90 μg ml^−1, 20 shoots tested per replication
[15] = menthol 100 μg ml^−1, 20 shoots tested per replication

CC1CCC(C(C)C)C(O)C1 (stereo not shown) [menthol]
twigs survived ([1]; menthol 50 μg ml^−1, after 7 days of culture, of a total of 2850 shoots): 1263 | twigs which survived ([1]; menthol 60 μg ml^−1, of the 1263 survivors of 50 μg ml^−1): 321 | twigs turned brown and died ([1]; menthol 60 μg ml^−1, within 7 days, of the 1263 survivors of 50 μg ml^−1): 942 | killing ([1]; menthol 70 μg ml^−1): 99% | shoots survived ([1]; menthol 70 μg ml^−1, tertiary level screening of 321 twigs): 30 | clones survived ([1]; menthol 80 μg ml^−1, twigs of the 30 selected tolerant clones from field trials): 5 | survival ([2]; 80 ppm menthol, after 7 days of incubation): 2% | lethality [2, 5]: 98% | Survival after 7 days Number ([2]; menthol 10 μg ml^−1): 20.0 ± 0.00 | Survival after 24 hours Number [2, 6]: 20.0 ± 0.00 | Survival after 7 days Number ([2]; menthol 20 μg ml^−1): 20.0 ± 0.00 | Survival after 24 hours Number [2, 7]: 20.0 ± 0.00 | Survival after 7 days Number ([2]; menthol 30 μg ml^−1): 20.0 ± 0.00 | Survival after 24 hours Number [2, 8]: 20.0 ± 0.00 | Survival after 7 days Number ([2]; menthol 40 μg ml^−1): 18.0 ± 0.57 | Survival after 24 hours Number [2, 9]: 20.0 ± 0.00 | Survival after 7 days Number ([2]; menthol 50 μg ml^−1): 13.4 ± 0.66 | Survival after 24 hours Number [2, 10]: 19.0 ± 0.57 | Survival after 7 days Number ([2]; menthol 60 μg ml^−1): 10.0 ± 0.91 | Survival after 24 hours Number [2, 11]: 16.0 ± 0.57 | Survival after 7 days Number ([2]; menthol 70 μg ml^−1): 3.0 ± 0.58 | Survival after 24 hours Number [2, 12]: 10.0 ± 0.82 | Survival after 7 days Number ([2]; menthol 80 μg ml^−1): 0.4 ± 0.32 | Survival after 24 hours Number [2, 13]: 5.0 ± 0.41 | Survival after 7 days Number ([2]; menthol 90 μg ml^−1): 0.0 ± 0.00 | Survival after 24 hours Number [2, 14]: 3.0 ± 0.32 | Survival after 7 days Number ([2]; menthol 100 μg ml^−1): 0.0 ± 0.00 | Survival after 24 hours Number [2, 15]: 0.4 ± 0.32 | lethality [3, 5]: 99% | Survival after 7 days Number ([3]; menthol 10 μg ml^−1): 20.0 ± 0.00 | Survival after 24 hours Number [3, 6]: 20.0 ± 0.00 | Survival after 7 days Number ([3]; menthol 20 μg ml^−1): 20.0 ± 0.00 | Survival after 24 hours Number [3, 7]: 20.0 ± 0.00 | Survival after 7 days Number ([3]; menthol 30 μg ml^−1): 20.0 ± 0.00 | Survival after 24 hours Number [3, 8]: 20.0 ± 0.00 | Survival after 7 days Number ([3]; menthol 40 μg ml^−1): 16.8 ± 0.48 | Survival after 24 hours Number [3, 9]: 20.0 ± 0.00 | Survival after 7 days Number ([3]; menthol 50 μg ml^−1): 7.0 ± 0.41 | Survival after 24 hours Number [3, 10]: 16.0 ± 0.90 | Survival after 7 days Number ([3]; menthol 60 μg ml^−1): 4.0 ± 0.57 | Survival after 24 hours Number [3, 11]: 12.0 ± 0.71 | Survival after 7 days Number ([3]; menthol 70 μg ml^−1): 0.4 ± 0.32 | Survival after 24 hours Number [3, 12]: 6.0 ± 0.32 | Survival after 7 days Number ([3]; menthol 80 μg ml^−1): 0.0 ± 0.00 | Survival after 24 hours Number [3, 13]: 1.6 ± 0.31 | Survival after 7 days Number ([3]; menthol 90 μg ml^−1): 0.0 ± 0.00 | Survival after 24 hours Number [3, 14]: 1.0 ± 0.41 | Survival after 7 days Number ([3]; menthol 100 μg ml^−1): 0.0 ± 0.00 | Survival after 24 hours Number [3, 15]: 0.2 ± 0.26 | lethality [4, 5]: 99% | Survival after 7 days Number ([4]; menthol 10 μg ml^−1): 20.0 ± 0.00 | Survival after 24 hours Number [4, 6]: 20.0 ± 0.00 | Survival after 7 days Number ([4]; menthol 20 μg ml^−1): 20.0 ± 0.00 | Survival after 24 hours Number [4, 7]: 20.0 ± 0.00 | Survival after 7 days Number ([4]; menthol 30 μg ml^−1): 20.0 ± 0.00 | Survival after 24 hours Number [4, 8]: 20.0 ± 0.00 | Survival after 7 days Number ([4]; menthol 40 μg ml^−1): 18.0 ± 0.41 | Survival after 24 hours Number [4, 9]: 20.0 ± 0.00 | Survival after 7 days Number ([4]; menthol 50 μg ml^−1): 10.0 ± 0.52 | Survival after 24 hours Number [4, 10]: 17.0 ± 0.41 | Survival after 7 days Number ([4]; menthol 60 μg ml^−1): 8.0 ± 0.82 | Survival after 24 hours Number [4, 11]: 15.0 ± 0.91 | Survival after 7 days Number ([4]; menthol 70 μg ml^−1): 1.0 ± 0.40 | Survival after 24 hours Number [4, 12]: 7.0 ± 0.82 | Survival after 7 days Number ([4]; menthol 80 μg ml^−1): 0.0 ± 0.00 | Survival after 24 hours Number [4, 13]: 3.0 ± 0.41 | Survival after 7 days Number ([4]; menthol 90 μg ml^−1): 0.0 ± 0.00 | Survival after 24 hours Number [4, 14]: 2.0 ± 0.32 | Survival after 7 days Number ([4]; menthol 100 μg ml^−1): 0.0 ± 0.00 | Survival after 24 hours Number [4, 15]: 0.2 ± 0.32
